Data on six molecules can be found in patent US6218378A, “Anti-tumor agents comprising pyridyl-substituted metal-diphosphine complex” (priority 1994, dated 2001).

Structures are written as SMILES. Where two headings read alike, the source gives them in different places.

The subject of series [1] is four human tumour cell lines (MM96, HeLa, CI-80-13S, HeLa-S1a). Kind of series: cytotoxicity against four human tumour cell lines in vitro (FIGS. 3 and 4). It is filed as cell-based. The text has this:
(§1) The origins of the human melanoma cell line MM96 has been described in Whitehead et al., 1973, Pigment Cell 1 383-389. The cell line JAM is described in Ward et al., 1987, Cancer Res. 47 2662-2667. The origin of the ovarian tumour line CI-80-13S has been described in Bertoncello et al., 1985, Aust. J. Exp. Biol. Med. Sci. 63 241-243. The origin of the cervical carcinoma cell line HeLa has been described in Maynard et al., 1986, Cancer Res. 46 5009-5093. The subclone HeLa-S1a was derived by stably transfecting HeLa with PAI-2 cDNA described in Schleuning et al., 1987, Mol. Cell. Biol. 7 4564-4567 in the sense orientation under the control of the cyto-megalovirus (CMV) promoter. The stably infected subclone was isolated following G418 selection and expression of the PAI-2 transgene characterised by immunoblot analysis and quantitated by ELISA. All of these cell lines have been used before for carrying out cell survival assays referred to in FIGS. 1-4. Cells were cultured at 37° in 5% CO2 /air in Roswell Park Memorial Institute medium 1640 containing 5% foetal calf serum, 100 μg/ml streptomycin, 100 IU/ml penicillin, 1 mM pyruvate, 50 μM nicotinamide and 3 mM HEPES.
(§2) Cells were seeded in microtitre plates (lowest number for fastest growing cells: 1000 HeLa, 2000 MM96, […] CI-80-13S cells per 6 mm well in 100 μl), normally but not necessarily allowed to attach overnight, then 5 dilutions of the drug were added to duplicate wells. After an overnight incubation to equilibrate the pH, the lids were quickly taped around the edge to prevent evaporation. The plates were incubated for 5-7 days, until the controls were nearly confluent. Cell growth/morphology was scored at each dose visually (inverted microscope). The medium was then replaced by 50 μl fresh medium containing 2 u/Ci/ml [methyl-3H]-thymidine (5 Ci/mmol; Radiochemical Centre, Amersham, Bucks., U.K.) and incubated for 2-4 hr. The cells were washed with PBS (0.1 M NaCl, 50 mM phosphate, pH 7.2), detached with 100 μl of PBS containing 0.2 mg/ml trypsin and 10 mM EDTA, and washed onto a glass fibre GF/a filter mat with water using a cell harvester. Later, wells were checked under the microscope to ensure complete detachment and washout. Radioactivity was determined in an LKB Beta Plate counter and the results plotted as log % control cpm versus dose. The ID50 (dose required to give 50% survival) was interpolated from this survival curve.
We have tested the following compounds of formula (III) against the four human tumour cell lines described above, i.e.: […]

A further series relates to CI-80-13S. Kind of series: cell survival after drug treatment ([methyl-3H]-thymidine). It is filed as cell-based, human.
Excerpt: (§3) In FIGS. 1-4 and Table 1, reference is made to the cell lines HeLa, HeLa-S1a, JAM, CI-80-13S and MM96.
as §1, §2

Another series concerns HeLa-S1a. The series is described as above. It is filed as cell-based, human.
Excerpt: as §3, §1, §2

A further series has as its system HeLa. The description is as above. It is filed as cell-based, human.
Excerpt: as §3, §1, §2

A further series deals with MM96. The description is as above. It is filed as cell-based, human.
Excerpt: as §3, §1, §2

Another series relates to 41M-cisR. Kind of series: cytotoxicity assay, sulforhodamine B. In kind it is cell-based, human. Particulars: 96 hrs, mean ± SD or individual values when n<3. The procedure: (§4) In Table 2, reference is made to cell lines 41M, 41M-cisR, SKOV-3, CH1 and CH1-cisR.
(§5) J. Cancer 69 1-7. The characteristics of the cell line pairs CH1/CH1 cisR, 41M/41McisR and 41M/SKOV3 are described in Table 3.
(§6) The cytotoxicity assay used sulforhodamine B which stains the basic amino acids. Cells (5000 or 2500 for SKOV-3) were seeded into 96 well microtitre plates (Linbro, Flow Laboratories Inc., USA) in 0.1 ml of medium. After an overnight incubation, the metal phosphine compounds were dissolved in 0.9% NaCl or ethanol and diluted with medium, were added at concentrations ranging from 0.005 to 50 μM to quadruplicate wells. After 96 hrs incubation, the medium was removed and cells were fixed in 0.2 ml of cold 10% (w/v) trichloroacetic acid (May & Baker Ltd., Dagenham, England) for 30 mins at 4° C. The plates were washed five times with tap water. Then 0.1 ml of 0.4% (w/v) sulforhodamine B (Sigma Chemical Co., St. Louis, USA) dissolved in 1% acetic acid (Ajax Chemicals, Australia) was added to the wells and left to stand at room temperature for 15 mins. The plates were then washed five times with 1% acetic acid and left to dry overnight. The next morning, 0.1 ml of 10 mM Tris buffer (Sigma Chemical Co., St. Louis, USA) was then added to each plate to solubilise the dye. Absorbance was read at a wavelength of 570 nm using a 96 well plate reader Dynatech MR 5000 plate reader. Absorbance of treatment cells was expressed as a percentage of positive (drug-free) controls. The results were plotted as percentage growth versus drug concentration.

For the next series, the system named is 41M. Kind of series: cytotoxicity assay, sulforhodamine B. It is filed as cell-based, human. The conditions noted are these: 96 hrs, mean ± SD or individual values when n<3. The procedure: as §4, §5, §6
Another series has as its system CH1-cisR. The experiment in a line: cytotoxicity assay, sulforhodamine B. In kind it is cell-based, human. The conditions noted are these: 96 hrs, mean ± SD or individual values when n<3. The procedure:
as §4, §5, §6

For the next series, the system named is CH1. The experiment in a line: cytotoxicity assay, sulforhodamine B. Particulars: 96 hrs, mean ± SD or individual values when n<3. In kind it is cell-based, human. The procedure: as §4, §5, §6
Another series relates to SKOV-3. The experiment in a line: cytotoxicity assay, sulforhodamine B. It is filed as cell-based, human. Particulars: 96 hrs, mean ± SD or individual values when n<3. The procedure: as §4, §5, §6
Series [2] concerns 41M, 41M-cisR, SKOV-3, CH1, CH1-cisR. The experiment in a line: growth inhibition of cisplatin-sensitive and -resistant ovarian cancer cell lines (Table 2, FIG. 5). It is filed as cell-based, human.
Excerpt: (§7) The sensitive CH1 cell line was established from a patient with drug-sensitive disease and its resistant variant (CH1-cisR) was generated by prolonged in vitro exposure to cisplatin during which it acquired more efficient DNA repair as described in Kelland et al., 1992, Cancer Research 52 3857-3864. The sensitive 41M cell line was also established from a patient with a sensitive tumor and its resistant variant (41M-cisR) was generated in the same way but acquired decreased uptake across the cell membrane (Kelland et al., 1992, supra). The intrinsically-resistant SKOV-3 ovarian carcinoma cell line has high glutathione levels as described in Mistry et al., 1991, Brit. J. Cancer 64 215-220 and reduced levels of bi-functional cisplatin-DNA lesions as described in McKeage et al., 1994, Brit. J. Cancer 69 1-7. The characteristics of the cell line pairs CH1/CH1 cisR, 41M/41McisR and 41M/SKOV3 are described in Table 3.
as §6, with “concentration. The drug concentration resulting in a 50% growth inhibition was termed the IC50. The passage numbers used for the cytotoxicity assay from each cell line were, CH1 passages 50-58, CH1 cis-R passages 77-83, 41M passages 50-63, 41M cisR 81-92 and SKOV-3 passages 106-128.” for “concentration.”

Another series relates to human tumour cell lines. Kind of series: selectivity of cytotoxicity over all cell lines evaluated (Tables 1 and 2). In kind it is cell-based.
Excerpt: as §1, §2, §7
The cytotoxicity assay used sulforhodamine B which stains the basic amino acids. Cells (5000 or 2500 for SKOV-3) were seeded into 96 well microtitre plates (Linbro, Flow Laboratories Inc., USA) in 0.1 ml of medium. After an overnight incubation, the metal phosphine compounds were dissolved in 0.9% NaCl or ethanol and diluted with medium, were added at concentrations ranging from 0.005 to 50 μM to quadruplicate wells. After 96 hrs incubation, the medium was removed and cells were fixed in 0.2 ml of cold 10% (w/v) trichloroacetic acid (May & Baker Ltd., Dagenham, England) for 30 mins at 4° C. The plates were washed five times with tap water. […]

The subject of series [3] is cisplatin cytotoxicity. The conditions noted are these: in vitro; cited from earlier work.
The subject of series [4] is cisplatin cytotoxicity. Particulars: in vivo; cited from earlier work.

For `O=[N+]([O-])[O-].O=[N+]([O-])[O-].[Ag+].[Ag+].c1ccc(P(CCP(c2ccccn2)c2ccccn2)c2ccccn2)nc1.c1ccc(P(CCP(c2ccccn2)c2ccccn2)c2ccccn2)nc1.c1ccc(P(CCP(c2ccccn2)c2ccccn2)c2ccccn2)nc1.c1ccc(P(CCP(c2ccccn2)c2ccccn2)c2ccccn2)nc1` [[Ag2 (d2pype)4](NO3)2], the “cytotoxicity (FIGS. 3 and 4)” value in series [1] (all four cell lines) is “cytotoxic to all four cell lines”. In [1] (compared with formula (I) or (V), R=4-pyridyl and 3-pyridyl), the “selectivity against the cisplatin-resistant lines” value is listed as “do not show the same selectivity”.
Consider `[Au+].[Au+].[Cl-].[Cl-].c1cncc(P(CCP(c2cccnc2)c2cccnc2)c2cccnc2)c1.c1cncc(P(CCP(c2cccnc2)c2cccnc2)c2cccnc2)c1` [[Au2 (d3pype)2 Cl2]], for which the “cytotoxicity (FIGS. 1 and 2)” value was “selectively cytotoxic” with CI-80-13S (CI-80-13S ovarian in vitro), “selectively cytotoxic” in the series with HeLa-S1a (HeLa-S1a in vitro), “inactive” with HeLa (HeLa cervical carcinoma in vitro) and “inactive” in the series on MM96 (MM96 melanoma in vitro). For the same molecule, the IC50 (commonly the concentration needed to halve the response being measured) came out at 0.4 µM in the series on CI-80-13S (CI-80-13S, mean ± SD or individual values when n<3, 5-7 days); 0.4 µM with HeLa-S1a (HeLa-S1a, mean ± SD or individual values when n<3, 5-7 days); 38 µM with HeLa (HeLa, mean ± SD or individual values when n<3, 5-7 days); 56 µM in the series on MM96 (MM96L, mean ± SD or individual values when n<3, 5-7 days); 47 µM with 41M-cisR; 70 ± 12 µM with 41M. For the same molecule, the half-inhibitory concentration (IC50) in the series with CH1-cisR worked out at 0.5 ± 0.1 µM; in the series on CH1 it was 0.9 ± 0.4 µM; with SKOV-3, 71 ± 12 µM. In addition, the “sensitivity of cisplatin resistant cells versus non-resistant cells” value in series [2] (41M/41M-cisR and CH1/CH1-cisR pairs) is on record as “consistently more sensitive”.
With `[Au+].[Cl-].c1ccc(P(CCP(c2ccccc2)c2ccccn2)c2ccccn2)cc1.c1ccc(P(CCP(c2ccccc2)c2ccccn2)c2ccccn2)cc1` (stereo not drawn) [[Au(2-pyppe)2]Cl], the results for the IC50 in the series with 41M-cisR, in the series on 41M and in the series with SKOV-3 were 0.1 µM, 0.1 µM and 0.2 µM, respectively. Moreover, the “number of cell lines against which cytotoxic” value with human tumour cell lines is “cytotoxic to all the cell lines evaluated”. In addition, the degree of selectivity entry with human tumour cell lines (Tables 1 and 2) is recorded as “the least selectivity”. In addition, the “selectivity and cytotoxicity in ovarian cancer cell-lines (FIG. 5)” value in series [2] (96h incubation) was “cytotoxic to the 41M pair and the resistant SKOV-3”.
Consider `Cl.c1cncc([P+]2(c3cccnc3)CC[P+](c3cccnc3)(c3cccnc3)[Au-3]23[P+](c2cccnc2)(c2cccnc2)CC[P+]3(c2cccnc2)c2cccnc2)c1` [[Au(d3pype)2]Cl], for which the IC50 with 41M-cisR is 11 µM; in the series on 41M, over 25 µM; in the series with CH1-cisR, 10 µM; with CH1, 1.5 µM; with SKOV-3 it was over 25 µM.
Consider `Cl.c1cncc([P+]2(c3cccnc3)CC[P+](c3cccnc3)(c3cccnc3)[Cu-3]23[P+](c2cccnc2)(c2cccnc2)CC[P+]3(c2cccnc2)c2cccnc2)c1` [[Cu(d3pype)2]Cl], for which the IC50 with 41M-cisR is 30 µM; in the series with 41M, over 50 µM; with CH1, 3 µM; with SKOV-3, over 50 µM.
As for `Cc1cc(N)c2ccccc2[n+]1CCCCCCCCCC[n+]1c(C)cc(N)c2ccccc21` [delqualinium], the “enhancement of cisplatin cytotoxicity” value in the series with cisplatin cytotoxicity [3] and in the series on cisplatin cytotoxicity [4] was “enhance cisplatin cytotoxicity” in each case.
